The text below walks through data of the METLIN SMRT retention time set (Domingo-Almenara et al. 2019).

The structures appear in SMILES notation.

The data set in a line: gradient 5% acetonitrile 3 min, to 50% in 2 min, to 85% in 15 min, held 3 min, 100 µL/min. Particulars: column: Zorbax Extend-C18 2.1 x 50 mm; eluents: water / acetonitrile, 0.1% formic acid. In a few lines:
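Retention times of pure standards were taken from adduct peaks that were selected by computer and manually inspected. Over 3 months, mixtures of ~100 molecules were run by HPLC–quadrupole time-of-flight mass spectrometry in positive and negative ionization mode. The Zorbax Extend-C18 column (2.1 × 50 mm, 1.8 μm) ran at 100 μL/min in water and acetonitrile, each containing 0.1% formic acid, with 40 μL dead volume and 900 μL dwell volume.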
On to `O=S(=O)(NCc1nc(-c2ccc(-c3csc(C4CC4)n3)cc2)no1)c1ccc(F)cc1`, for which the RP-LC retention time turned out to be 1080 s.
Take `COC1CN(c2cccc(F)c2)C12CCN(Cc1cccc(F)c1)CC2` (centres undefined): the RP-LC retention time is 761 s.
Regarding `COc1cccc(N2CCN(S(=O)(=O)c3cc(-c4nnc(C5CCC5)o4)co3)CC2)c1`, the RP-LC retention time came to 1060 s.
As for `Cc1ccc2[nH]c(C(=O)NC3CC3)c(N3CCCC3=O)c2c1`, the RP-LC retention time is 707 s.
As for `O=C(CCn1nnc2cc(-c3noc(-c4ccc(Cl)cc4)n3)ccc21)N1CCCC1`, the figure is 1010 s; as for `O=C(COc1ccc(Cl)cc1)Nc1c(-c2ccc(F)cc2)nc2ccccn12`, 744 s; as for `O=C(NC1CC(=O)N(c2ccc3c(c2)OCCO3)C1)c1ccc(-c2ccccc2)cc1` (centres undefined), 866 s.
Then `CCOc1cccc(CN2C(=O)C3(CCOCC3)CC2c2nnnn2C(C)(C)C)c1` (centres undefined), with 820 s; and `CCOCCCNC(=O)Nc1ccc2nc3n(c(=O)c2c1)CCCC3`, with 563 s.
Then `Cc1cc(-c2nnc(SCC(N)=O)o2)c(C)o1`, with 625 s; and `O=C(Nc1cccc(F)c1)N1CCCC1c1nc(-c2ccccc2)no1` (centres undefined), with 964 s; and `CCCC(=O)Nc1ccc(CCc2nc3ccc(C(=O)NCCC4=CCCCC4)cc3[nH]2)cc1`, with 734 s.
Molecule `Cc1ccc(NC(=O)/C=C/c2ccccc2)c(C)c1` came in with an RP-LC retention time of 913 s.
As for `COCCNc1nc(-c2cccc(Cl)c2)nnc1C`, the figure is 657 s; as for `Cc1cc(NC(=O)CSc2nc3ccccc3o2)sn1`, 726 s.
On to `Cc1cc(NC(=O)Cn2c(=O)cc(-c3nc(C4CC4)no3)c3ccccc32)ccc1F`, for which the RP-LC retention time was 998 s.
Then `Cc1cc2nn(CC(=O)Nc3ccc(C)c(C)c3)c(=O)n2c(N2CCCC2)n1`, with 1010 s.
As for `CNC(=O)Cc1csc(-c2ccc(F)cc2)n1`, the figure is 716 s.
`Cc1ccc(Nc2nc(C)cc3nn(CC(=O)Nc4ccc(N(C)C)cc4)c(=O)n23)cc1` yielded an RP-LC retention time of 800 s.
`COc1ccccc1CCC(=O)NCc1cccnc1OC` registered an RP-LC retention time of 749 s.
`Cc1cccc(Nc2c(-c3cc(Br)ccc3O)nc3ncccn23)c1` displayed an RP-LC retention time of 1020 s.
The molecule `COCC(C)(O)CNC(=O)c1ccc(F)c(F)c1` (centres undefined) came in with an RP-LC retention time of 634 s.
As for `COc1ccc(CCNS(=O)(=O)c2cccc3cccnc23)cc1OC`, the figure is 745 s; as for `CCOC(=O)c1cc(S(=O)(=O)N2CCCC2C(=O)NCc2ccc(C)o2)cn1C` (centres undefined), 846 s.
Regarding `O=C1CCc2cc(NC(=O)c3ccc([N+](=O)[O-])cc3Cl)ccc2N1`, the RP-LC retention time was 807 s.
Turning to `Cc1noc(C)c1CC(=O)N1CCC(Cc2noc(C3CC3)n2)C1` (centres undefined), the RP-LC retention time stood at 748 s.
Then `O=C(Cc1ccc(F)cc1)NC(c1ccccc1)c1nnc(N2CCOCC2)o1` (centres undefined), with 743 s; and `CCN(CC)c1ccc(CNC(=O)C2CCc3nc(N4CCOCC4)ncc3C2)cc1` (centres undefined), with 588 s; and `Cn1cnc2c(C(=O)NCC3CCCO3)nn(-c3ccc(Cl)cc3)c2c1=O` (centres undefined), with 715 s.
As for `Cc1ccc(-c2noc(-c3ccc(=O)n(Cc4cccc(F)c4)n3)n2)cc1`, the figure is 1150 s; as for `Cc1nnc(-c2ccc3ccn(CC(=O)N4CCN(c5ccccc5)CC4)c3c2)o1`, 801 s; as for `O=C(Cn1c(=O)n(-c2ccc(F)cc2)c2ncccc21)NCCN1CCCCC1`, 592 s.
With `Cc1ccc(C)c(-c2cc3c4nn(CC(=O)NC5CCCC5)c(=O)n4ccn3n2)c1`, the RP-LC retention time was found to be 909 s.
Take `CCOc1cc(-c2nc(C3CC(=O)N(c4ccc(CC)cc4)C3)no2)cc(OCC)c1OCC` (centres undefined): the RP-LC retention time is 1300 s.
Then `O=C(Cc1c(Sc2ccccc2)[nH]c2ccccc12)N1CCN(c2ccccn2)CC1`, with 679 s.
As for `O=C(Cn1nc2c3ccc(F)cc3ncn2c1=O)Nc1ccc2c(c1)OCO2`, the figure is 707 s; as for `CCCN1C(=O)COc2ccc(-c3noc(-c4cccc(OC)c4OC)n3)cc21`, 1160 s.
Then `COc1ccc(C2(c3nc(CCS(=O)(=O)c4ccccc4)no3)CC2)cc1`, with 959 s; and `Cc1cccc(-c2nnc(-c3ccc(Cl)c(S(=O)(=O)N4CCOCC4)c3)o2)c1`, with 1020 s; and `CC1CCN(CCNC(=O)c2nnc(-c3ccc(S(=O)(=O)N4CCCC4)cc3)o2)CC1`, with 634 s.
Turning to `COc1ccccc1C(CNC(=O)c1cc(=O)c2c(C)cc(C)cc2o1)N(C)C` (centres undefined), the RP-LC retention time was found to be 645 s.
Molecule `CCc1nncn1C1CCN(S(=O)(=O)c2cc(C)ccc2C)CC1` displayed an RP-LC retention time of 752 s.
Regarding `Cc1ccc2ncn(C3CCN(S(=O)(=O)c4ccccc4C)CC3)c(=O)c2c1`, the RP-LC retention time was 929 s.
Turning to `COc1cc(NC(=O)Cc2cn3cc(Cl)ccc3n2)c(OC)cc1Cl`, the RP-LC retention time stood at 675 s.
In turn, `O=S(=O)(c1ccc2c(c1)OCCO2)N1CC[C@@H]2COCCN(Cc3cccnc3)[C@@H]2C1` gave an RP-LC retention time of 629 s.
The molecule `COc1cc(-c2nc3nc(C)cc(C)n3c2Nc2ccccc2)ccc1O` returned an RP-LC retention time of 647 s.
As for `O=c1c(NCc2ccccn2)nc2ccncc2n1Cc1ccccc1`, the figure is 578 s.
As for `Cc1cc(N)n(Cc2ccccc2)n1`, the figure is 569 s; as for `CCOC(=O)c1ccc2nc(C(F)(F)F)nc(NC(C)CCc3ccccc3)c2c1` (centres undefined), 1360 s; as for `Cc1noc(C2CN(C(=O)Nc3ccc(Cl)cc3F)CC23CCOCC3)n1` (centres undefined), 769 s.
As for `CCn1nc(C)c(S(=O)(=O)N2CCN(C(=O)C(C)Oc3cccc(Cl)c3)CC2)c1C` (centres undefined), the figure is 850 s; as for `CCN1C(=O)c2cccnc2Sc2cc(CNC(=O)c3ccn(CC)n3)ccc21`, 697 s.
`O=C(Nc1cccc([N+](=O)[O-])c1)c1ccc2ccccc2c1O` gave an RP-LC retention time of 1240 s.
Turning to `COc1ccccc1NC(=O)C1CCN(S(=O)(=O)c2cc(C(=O)N(C)C)cs2)CC1`, the RP-LC retention time came to 789 s.
As for `CC(C)N1CCn2c(nc3cc(C(=O)NCc4ccc(Cl)cc4)ccc32)C1=O`, the figure is 741 s; as for `COc1ccc(NS(=O)(=O)c2ccc3c(c2)C(=O)N(C)c2ncccc2O3)cc1Cl`, 918 s; as for `COc1cn(CC(=O)NCC2CCCO2)c(CN2CCC(C)CC2)cc1=O` (centres undefined), 570 s.
Then `COc1ccc2c(c1)CC(C(=O)NCCCN1CCN(C3CCCCC3)CC1)CO2` (centres undefined), with 576 s.
The molecule `CCCn1c(=O)sc2cc(S(=O)(=O)N3CCC(C(=O)NCc4ccc(F)cc4)CC3)ccc21` showed an RP-LC retention time of 934 s.
Then `O=C(CCc1ccccc1)Nc1c(-c2ccccc2)nc2ccccn12`, with 663 s; and `O=C(CN1C(=O)C(C(=O)N2CCCC2)Sc2ccccc21)NCc1ccccc1Cl` (centres undefined), with 928 s; and `CC(C)c1ccc(-n2nc(N3CCN(C(=O)CCC(=O)N4CCOCC4)CC3)ccc2=O)cc1`, with 695 s.
Molecule `CC(C)CCNC(=O)C1(C)CCC(=O)N1CCc1c[nH]c2ccccc12` (centres undefined) yielded an RP-LC retention time of 786 s.
Then `O=[n+]1c2c(n([O-])c3ccccc31)-c1cccc3cccc-2c13`, with 767 s; and `Cc1ccccc1NC(=O)N1CCC(CC(=O)N2CCCCC2)CC1`, with 732 s.
As for `COC(=O)C(NC(=O)N1CC(Cn2c(C)cnc2C2CCOCC2)C1)C(C)C` (centres undefined), the figure is 600 s; as for `CCOc1ccccc1NC(=O)N1CCN(c2ccc(=O)n(-c3ccccc3)n2)CC1`, 851 s.
Then `COc1ccc2c(c1)C1(CCN(C(=O)Nc3ccc(F)cc3)C1)C(=O)N2` (centres undefined), with 683 s.
In turn, `Cc1cccc(S(=O)(=O)N2CCC(C)(C(=O)NCc3ccc(F)cc3)CC2)c1` yielded an RP-LC retention time of 936 s.
Then `COc1ccc(CNC(=O)C2CCN(S(=O)(=O)c3cn(C(C)C)cn3)CC2)cc1`, with 733 s; and `COc1ccc(-c2cn3cccnc3n2)cc1NC(=O)c1ccc(OC)c(OC)c1`, with 641 s; and `Cc1cc(OC(C)C(=O)N[C@H](C(=O)O)c2ccccc2)c2c3c(c(=O)oc2c1)CCC3` (some centres undefined), with 843 s.
For the molecule `Cc1ccc(-c2ncccc2CNS(=O)(=O)c2ccc(F)cc2)cc1`, the RP-LC retention time was 707 s.
As for `CCCOc1ccc(S(=O)(=O)n2cccn2)cc1C`, the figure is 986 s.
Take `Cc1cc(C)n(-c2cc(N3CCCC(C(=O)Nc4nccs4)C3)ncn2)n1` (centres undefined): the RP-LC retention time turned out to be 749 s.
`O=C(Cn1nc2c3cc(-c4ccc(F)cc4)nn3ccn2c1=O)Nc1ccc(Br)cc1` registered an RP-LC retention time of 923 s.
With `Cc1nn(C)c(C)c1CCN(C)C(=O)CC1=C2CCCCC2N(C(C)C)C1=O` (centres undefined), the RP-LC retention time came out at 648 s.
Then `O=C(c1cc(-c2ccc(Br)cc2)n[nH]1)N1CCN(c2ccc(N3CCOCC3)nn2)CC1`, with 649 s; and `COc1ccc(OC)c(CNC(=O)C2CCCN(c3nnc4ccc(Cl)cn34)C2)c1` (centres undefined), with 737 s.
